As a reminder, the mortality is the percentage killed.

The subject of assay [1] is Beet Armyworm (Spodoptera exigua, LAPHEG). Nature of the assay: Insecticidal test for beet armyworm (BAW), 128-well diet tray assay. Type of assay: in vivo. The following applies: 168 h, 50 μg/cm^2 on artificial diet, second instar larvae, five to seven days, 25° C., read-out: BAW rating, % Control (or Mortality). As for the experimental part: Insecticidal Test for Beet Armyworm (Spodoptera exigua, LAPHEG) (“BAW”)
Bioassays on beet armyworm (BAW; Spodoptera exigua: Lepidoptera) are conducted using a 128-well diet tray assay. One to five second instar BAW larvae are placed in each well (3 mL) of the diet tray that had been previously filled with 1 mL of artificial diet to which 50 μg/cm^2 of the test compound (dissolved in 50 μL of 90:10 acetone-water mixture) had been applied (to each of eight wells) and then allowed to dry. Trays are covered with a clear self-adhesive cover, vented to allow gas exchange, and held at 25° C., 14:10 light-dark for five to seven days. Percent mortality is recorded for the larvae in each well; activity in the eight wells is then averaged. In the reporting of the results, the “BAW & CL Rating Table” was used.

Assay [2] concerns Cabbage Looper (Trichloplusia ni, TRIPNI). In words: Insecticidal test for cabbage looper (CL), 128-well diet tray assay. Format: in vivo. The following applies: Trichoplusia ni, 168 h; 50 μg/cm^2 on artificial diet, second instar larvae, five to seven days, 25° C.; read-out: CL rating, % Control (or Mortality). As for the experimental part:
Insecticidal Test for Cabbage Looper (Trichloplusia ni, TRIPNI) (“CL”)
Bioassays on cabbage looper (CL; Trichloplusia ni: Lepidoptera) are conducted using a 128-well diet tray assay. One to five second instar CL larvae are placed in each well (3 mL) of the diet tray that had been previously filled with 1 mL of artificial diet to which 50 μg/cm^2 of the test compound (dissolved in 50 μL of 90:10 acetone-water mixture) had been applied (to each of eight wells) and then allowed to dry. Trays are covered with a clear self-adhesive cover, vented to allow gas exchange, and held at 25° C., 14:10 light-dark for five to seven days. Percent mortality is recorded for the larvae in each well; activity in the eight wells is then averaged. In the reporting of the results, the “BAW & CL Rating Table” was used.

As to `COc1ccc(N2C(=O)CS/C2=N\C(=O)OCC(F)c2ccc(-c3ncn(-c4ccc(OC(F)(F)F)cc4)n3)cc2)c(C)c1` (stereo not drawn) [A37, 2-Fluoro-2-(4-(1-(4-(trifluoromethoxy)phenyl)-1H-1,2,4-triazol-3-yl)phenyl)ethyl (Z)-(3-(4-methoxy-2-methylphenyl)-4-oxothiazolidin-2-ylidene)carbamate], the mortality at 50 µg/cm2 is 0% in assay [1] and 50 to 100% in assay [2].
Taken in the same sequence, the figures for `Cc1cc(Cl)c(N2C(=O)CS/C2=N\C(=O)OCC(F)c2ccc(-c3ncn(-c4ccc(OC(F)(F)F)cc4)n3)cc2)cc1C` (stereo not drawn) [A38, 2-Fluoro-2-(4-(1-(4-(trifluoromethoxy)phenyl)-1H-1,2,4-triazol-3-yl)phenyl)ethyl (Z)-(3-(2-chloro-4,5-dimethylphenyl)-4-oxothiazolidin-2-ylidene)carbamate] were 0% and 50 to 100%.
As for `O=C(/N=C1\SCC(=O)N1c1cccc2c1CCCC2)OCC(F)c1ccc(-c2ncn(-c3ccc(OC(F)(F)F)cc3)n2)cc1` (stereo not drawn) [A39, 2-Fluoro-2-(4-(1-(4-(trifluoromethoxy)phenyl)-1H-1,2,4-triazol-3-yl)phenyl)ethyl (Z)-(4-oxo-3-(5,6,7,8-tetrahydronaphthalen-1-yl)thiazolidin-2-ylidene)carbamate], the mortality at 50 µg/cm2 in assay [1] and in assay [2] was 50 to 100% in each case.
`CCOc1ccccc1N1C(=O)CS/C1=N\C(=O)OCC(F)c1ccc(-c2ncn(-c3ccc(OC(F)(F)F)cc3)n2)cc1` (stereo not drawn) [A40, 2-Fluoro-2-(4-(1-(4-(trifluoromethoxy)phenyl)-1H-1,2,4-triazol-3-yl)phenyl)ethyl (Z)-(3-(2-ethoxyphenyl)-4-oxothiazolidin-2-ylidene)carbamate]: the mortality at 50 µg/cm2 in assay [1] and in assay [2] was 50 to 100% in each case.
As for `CCC(C)Oc1ccc(C)cc1N1C(=O)CS/C1=N\C(=O)OCC(F)c1ccc(-c2ncn(-c3ccc(OC(F)(F)F)cc3)n2)cc1` (stereo not drawn) [A41, 2-Fluoro-2-(4-(1-(4-(trifluoromethoxy)phenyl)-1H-1,2,4-triazol-3-yl)phenyl)ethyl (Z)-(3-(2-(sec-butoxy)-5-methylphenyl)-4-oxothiazolidin-2-ylidene)carbamate], the mortality at 50 µg/cm2 in assay [1] and in assay [2] was 50 to 100% throughout.
On to `CCc1cccc(C)c1N1C(=O)CS/C1=N\C(=O)OCC(F)c1ccc(-c2ncn(-c3ccc(OC(F)(F)F)cc3)n2)cc1` (stereo not drawn) [A42, 2-Fluoro-2-(4-(1-(4-(trifluoromethoxy)phenyl)-1H-1,2,4-triazol-3-yl)phenyl)ethyl (Z)-(3-(2-ethyl-6-methylphenyl)-4-oxothiazolidin-2-ylidene)carbamate], for which the mortality at 50 µg/cm2 in assay [1] lay within 0 to 50%; in assay [2] it was 50 to 100%.
Taken in the same sequence, the figures for `CC(C)c1ccc(Cl)cc1N1C(=O)CS/C1=N\C(=O)OCCc1ccc(-c2ncn(-c3ccc(OC(F)(F)C(F)(F)F)cc3)n2)cc1` [A43, 4-(1-(4-(Perfluoroethoxy)phenyl)-1H-1,2,4-triazol-3-yl)phenethyl (Z)-(3-(5-chloro-2-isopropylphenyl)-4-oxothiazolidin-2-ylidene)carbamate] were 50 to 100% and 0%.
On to `Cc1ccc(C(C)C)c(N2C(=O)CS/C2=N\C(=O)OCCc2ccc(-c3ncn(-c4ccc(OC(F)(F)C(F)(F)F)cc4)n3)cc2)c1` [A44, 4-(1-(4-(Perfluoroethoxy)phenyl)-1H-1,2,4-triazol-3-yl)phenethyl (Z)-(3-(2-isopropyl-5-methylphenyl)-4-oxothiazolidin-2-ylidene)carbamate], for which the mortality at 50 µg/cm2 in assay [1] and in assay [2] was 50 to 100% in each case.
As for `CC(C)c1ccccc1N1C(=O)CS/C1=N\C(=O)OCCc1ccc(-c2ncn(-c3ccc(OC(F)(F)C(F)(F)F)cc3)n2)cc1` [A45, 4-(1-(4-(Perfluoroethoxy)phenyl)-1H-1,2,4-triazol-3-yl)phenethyl (Z)-(3-(2-isopropylphenyl)-4-oxothiazolidin-2-ylidene)carbamate], the mortality at 50 µg/cm2 in assay [1] and in assay [2] was 50 to 100% each time.
